Consider 4 compounds from patent publication US20200062738A1, “ANTI-CANCER STEMNESS DRUGS” (Development Center for Biotechnology, priority 2017, published 2020).

The subject of assay [1] is H1975-luc cells. Put plainly: Orthotopic H1975-luc model, treatment starting 2 days after tumor implantation (FIG. 4). To be noted: for tumor-free rate: 3 mpk IV, 5 times/week. The format is in vivo, mice. The source says: Mice were orthotopically implanted with H1975-luc cells (10^6 cells/mouse). On day 0 (defined as 2 days after tumor implantation), mice were given drug treatments for 4 weeks (5 times/week), and the tumor formations were followed by non-invasive imaging on days 14 and 28.
(§1) The mouse cancer models were generated as described above. Orthotopic H1975-Luc model was described as previous study. BI-44 was administrated by IV injection through tail vein, 5 times/7 days, with the doses indicated on the figure. Gefitinib and Afatinib were administrated orally, 5 times/7 days, with the dose of 20 mpk (mg/Kg).
In the first animal model, Mice were orthotopically implanted with H1975-luc cells (10^6 cells/mouse). On day 0 (defined as 2 days after tumor implantation), mice were started to receive drug treatments for 4 weeks (5 times/week), and the tumor formations were followed by non-invasive imaging on day 14 and 28.
BI-44 was administrated starting 2 days after orthotopic lung tumor implantation according to the administration scheme shown in FIG. 4A, and the tumor formations were evaluated via non-invasive bioluminescent imaging on days 14 and 28.

Assay [2] concerns BMI-1. Briefly: BMI-1 protein expression by western blot in H1975 cells. Type of assay: cell-based, human. To be noted: for BMI-1 protein expression: 10 μM, 6 h, western blot; for inhibition of BMI-1 expression, dose dependence: different concentrations, western blot (#44: 6 h). As to the method:
(§2) The abilities of compounds of the invention to inhibit BMI-1/MCl-1 expressions were assayed with cell cultures. BMI-1 and MCL-1 are overexpressed in many cancers, such as lung cancer cell line H1975. Therefore, cancer cells that overexpress BMI-1/MCL-1 provide a convenient platform for assaying BMI-1/MCL-1 inhibition.
(§3) After drug treatments, cells were washed twice with PBS, scraped, and resuspended in RIPA buffer containing protease inhibitors (20 mM Tris-HCl pH 7.5, 150 mM NaCl, 1 mM Na2EDTA, 1 mM EGTA, 1% NP-40, 1% sodium deoxycholate, 2.5 mM sodium pyrophosphate, 1 mM b-glycerophosphate, 1 mM Na3VO4, 1 μg/ml leupeptin). Cell lysate was sonicated for 5-10 min, and centrifuged at 14000 rpm for 20 minutes at 4° C. The supernatant was collected, determined for protein concentrations, and stored at −80° C. before further use.
(§4) BMI-1/MCL-1 expression levels may be assessed with western blot analysis. […] The denatured protein samples were then loaded in 10% Tris-Glycine SDS polyacrylamide gel for separating proteins. The power supply for the running condition was set at 80 V for running stacking gel and 100 V for separating gel, respectively. […] The power supply for the transfer condition was set at 300 mA, and the transfer was carried out on ice for 2.5 hours. The nitrocellulose membranes containing the denatured proteins were blocked with a solution containing 5% skim milk at room temperature for 1 hour.
After blocking, the membranes were washed with TBS containing 0.1% Tween-20 (TBST) for 5 minutes. […] After washing with TBST (5 min×3), the membranes were incubated with the secondary antibody (HRP-conjugated anti-mouse IgG, Jackson ImmunoReserch LABORATORIES INC., 1:5000) at room temperature for 1 hour. After washing with TBST (5 min×5), the membranes were incubated with chemiluminescence regent for 1 minute and imaged with a Bioluminiscent imaging system (Biospectrum-AC w/Bio Chemi Camera, UVP).
A general note: A western blot detects proteins with antibodies after separation by electrophoresis.

Assay [3] has as its system MCL-1. Put plainly: MCL-1 protein expression by western blot in H1975 cells. The format is cell-based, human. To be noted: for MCL-1 protein expression: 10 μM, 6 h, western blot; for inhibition of MCL-1 expression, dose dependence: different concentrations, western blot (#44: 6 h). As for the experimental part: as §2, §3, §4
In addition, the membranes were also probed with antibodies against MCL-1 and tubulin. Tubulin functions as an internal control to assess the relative loadings in different lanes on the gel. Myeloid cell leukemia 1 (MCL1) is a pro-survival protein overexpressed in many cancers.

Assay [4] has as its system H1975-luc cells. Briefly: Orthotopic H1975-Luc model, treatment starting 3 weeks after tumor implantation (FIG. 5). Type of assay: in vivo, mice. To be noted: for tumor inhibition rate: day 21.
Text: Mice were orthotopically implanted with H1975-luc cells (10^6 cells/mouse). On day 0 (defined as 3 weeks after tumor implantation), mice were imaged and started to receive drug treatments for 3 weeks (5 times/week). The tumor growths were followed by non-invasive imaging weekly.
as §1
In the second model, BI-44 was administrated starting 3 weeks after tumor implantation (FIG. 5A) when all the mice contained defined luciferase signals in lungs. Then, tumor growths were followed for 3 weeks (FIG. 5A). Mice were orthotopically implanted with H1975-Luc cells (10^6 cells/mouse). On day 0 (defined as 3 weeks after tumor implantation), mice were imaged and started to receive drug treatments for 3 weeks (5 times/week). The tumor growths were followed by non-invasive imaging weekly.

Assay [5] concerns H1975-Luc cells. Put plainly: In vivo anti-tumor test, orthotopic H1975-Luc mouse tumor model (FIG. 3). On the set-up: species or system SCID mice. As to conditions: 1 mpk IV tail vein, 5 times/7 days, 3 weeks. The text has this:
Mice were orthotopically implanted with H1975-luc cells (10^6 cells/mouse), and started to receive drug treatments for 3 weeks. The tumor growths were followed by non-invasive bioluminescent imaging, and quantified. […] Tarceva ([…]) was administrated orally (20 mpk, 5 times/7 days). N=5 to 7 for each group.
The derivatives showing potent anti-BMI-1/MCL-1 effects, such as compounds #43-45 (BI-43-BI-45), were selected for further in vivo anti-tumor test. The in vivo mouse tumor model was established as described below. • 1. SCID mice (70 mice, about […]) were quarantined for one week before lung cancer cells are implanted into their chest cavities. • 2. Before implanting the cancer cells into the mouse chest cavities, the mice were anesthetized with gas anesthesia. The mice were placed in a transparent acrylic box of 20 cm×10 cm×10 cm, which was connected with a flexible tubing to an anesthesia machine and an oxygen tank. Then, an appropriate amount of anesthesia (Isoflurane) was introduced into the anesthesia machine and the valve is open. […] One week after intra-thoracic implant of cancer cells, a luminescence reagent (D-luciferin) was injected into the abdominal cavities of the mice. […]
After establishment of the tumors in mice, the test compounds were administered at the indicated doses and the tumor sizes were monitored using bioluminescence. […]

For `CN(C)C/C=C/C(=O)Nc1cc2c(Nc3ccc(F)c(Cl)c3)ncnc2cc1O[C@H]1CCOC1` [Afatinib, reference compound], the “tumor inhibition rate as compared to control” value in assay [1] (Afatinib 20 mpk orally, day 28) was “around 80%”.
As for `COc1cc(Br)c(Nc2nc(-c3c(C)nc4ncccn34)cs2)c(Br)c1` [Compound 43], in assay [2], the BMI-1 protein expression result is recorded as “significantly reduced”. Further, in assay [3], the MCL-1 protein expression result was “significantly reduced”.
`CCc1ccc(C(=O)Nc2cccc(-c3cccc4cc[nH]c34)c2)cc1` [Compound 44, N-(3-(1H-indol-7-yl)phenyl)-4-ethylbenzamide]: the tumor inhibition rate entry in assay [4] (3 mpk IV) and in assay [4] (9 mpk IV) was “around 90%” in each case. Also, the tumor growth inhibition entry in assay [4] (IV 5 times/week for 3 weeks, 1, 3, 9 mpk) is “significantly inhibited tumor growth in a dose-dependent manner”. The BMI-1 protein expression result in assay [2] was “significantly reduced”. Moreover, the “inhibition of BMI-1 expression, dose dependence” value in assay [2] was “inhibits the expressions of BMI-1 and MCL-1 in a dose-dependent manner”; in assay [2] (listed as #44), “effectively inhibited the expressions of BMI-1 and MCL-1 at sub-μM concentrations”. The tumor-free rate in assay [1] (day 14) is 62.5%; in assay [1] (day 28), 37.5%. In addition, in assay [1] (BI-44 3 mpk IV, day 28), the “tumor inhibition rate as compared to control” value is recorded as “around 80%”. In addition, the “bioluminescent intensities in mice lungs” value in assay [1] (BI-44 3 mpk IV, days 14 and 28) is “significantly reduced bioluminescent intensities”. The MCL-1 protein expression result in assay [3] is recorded as “significantly reduced”. The “inhibition of MCL-1 expression, dose dependence” value was “inhibits the expressions of BMI-1 and MCL-1 in a dose-dependent manner” in assay [3]; “effectively inhibited the expressions of BMI-1 and MCL-1 at sub-μM concentrations” in assay [3] (listed as #44). Besides, in assay [5], the “anti-tumor growth effects (bioluminescence)” value is “most significant anti-tumor growth effects”.
For `O=C(Nc1cccc(Cl)c1)Nc1cccc(-c2cccc3cc[nH]c23)c1` [Compound 45], the BMI-1 protein expression entry in assay [2] is on record as “significantly reduced”. Further, the MCL-1 protein expression result in assay [3] is “significantly reduced”.
